The first test addresses T1, KCNQ2/3 channels (Homo sapiens, UniProt O43525+O43526).
T1 construct: expressed in transfected cells; host or cells: CHO-K1
Kind of test: Fluorescence assay using a voltage-sensitive dye. It counts as cell-based. As to conditions: 10 μmol test substance; CHO-K1 cells expressing KCNQ2/3 channels; agonistic activity; read-out: % Stimulation [10 μmol] Average. Here is the method: Fluorescence Assay Using a Voltage-Sensitive Dye
Human CHO-K1 cells expressing KCNQ2/3 channels are cultivated adherently at 37° C., 5% CO2 and 95% humidity in cell culture bottles (e.g. 80 cm^2 TC flasks, Nunc) with MEM Alpha Medium (1×, liquid, Invitrogen, #22571), 10% foetal calf serum (FCS) (Invitrogen, #10270-106, heat-inactivated) and the necessary selection antibiotics. Before being spread out for the measurements, the cells are washed with a 1×DPBS buffer without Ca^2+/Mg^2+ (e.g. Invitrogen, #14190-094) and detached from the bottom of the culture vessel by means of Accutase (PAA Laboratories, #L11-007) (incubation with Accutase for 15 min at 37° C.). The cell count then present is determined using a CASY™ cell counter (TCC model, Schärfe System) in order subsequently to apply 20,000 cells/well/100 μl of the described nutrient medium to 96-well measuring plates of the Corning™ CellBIND™ type (flat clear-bottom black polystyrene microplates, #3340). Incubation is then carried out for one hour at room temperature, without gassing or adjusting the humidity, followed by incubation for 24 hours at 37° C., 5% CO2 and 95% humidity.
The voltage-sensitive fluorescent dye from the Membrane Potential Assay Kit (Red bulk format part R8123 for FLIPR, Molecular Devices™) is prepared by dissolving the contents of a vessel of Membrane Potential Assay Kit Red Component A in 200 ml of extracellular buffer (ES buffer, 120 mM NaCl, 1 mM KCl, 10 mM HEPES, 2 mM CaCl2, 2 mM MgCl2, 10 mM glucose; pH 7.4). After removal of the nutrient medium, the cells are washed with 200 μl of ES buffer, then covered with a layer of 100 μl of the dye solution prepared above and incubated for 45 min at room temperature with exclusion of light.
The fluorescence measurements are carried out with a BMG Labtech FLUOstar™ or BMG Labtech POLARstar™ instrument (525 nm excitation, 560 nm emission, bottom-read mode). After incubation of the dye, 50 μl of the substances to be tested in the desired concentrations, or 50 μl of ES buffer for control purposes, are introduced into separate cavities of the measuring plate and incubated for 30 min at room temperature whilst being shielded from light. The fluorescence intensity of the dye is then measured for 5 min and the fluorescence value F1 of each well is thus determined at a given, constant time. 15 μl of a […] KCl solution ([…]) are then added to each well. The change in fluorescence is subsequently measured until all relevant measured values have been obtained (mainly 5-30 min). At a given time after KCl application, a fluorescence value F2 is determined, in this case at the time of the fluorescence peak.
For calculation, the fluorescence intensity F2 is compared with the fluorescence intensity F1, and the agonistic activity of the target compound on the potassium channel is determined therefrom. F2 and F1 are calculated as follows:
[formula] In order to determine whether a substance has an agonistic activity,
[formula] for example, can be compared with
[formula] of control cells.
[formula] is determined by adding to the reaction batch only the buffer solution instead of the substance to be tested, determining the value F1K of the fluorescence intensity, adding the potassium ions as described above and measuring a value F2K of the fluorescence intensity. Then F2K and F1K are calculated as follows:
[formula] A substance has an agonistic activity on the potassium channel when
[formula] is greater than
[formula] Independently of the comparison of
[formula] it is also possible to conclude that a target compound has an agonistic activity if an increase in
[formula] is to be observed as the dosage of the target compound increases. Calculations of EC50 and IC50 values are carried out with the aid of Prism 4 software (GraphPad Software™).
For the compound `CC(CCc1ccccc1)NC(=O)c1cn2c(n1)CCC(c1cccc(F)c1)C2` (stereo not drawn) [Compound 51, 6-(3-Fluorophenyl)-N-(4-phenylbutan-2-yl)-5,6,7,8-tetrahydroimidazo[1,2-a]pyridine-2-carboxamide], the activation at 10 µM is 16.2%.
On the same count and under the same terms, under `CCc1ccc(C2CCc3nc(C(=O)NC(C)CCc4ccccc4)cn3C2)cc1` (stereo not drawn) [Compound 52, 6-(4-Ethylphenyl)-N-(4-phenylbutan-2-yl)-5,6,7,8-tetrahydroimidazo[1,2-a]pyridine-2-carboxamide] stands 34.2%; under `O=C(c1cn2c(n1)CCC(c1cccc(F)c1)C2)N1CCC(Cc2ccccc2)CC1` (stereo not drawn) [Compound 61, (4-Benzylpiperidin-1-yl)(6-(3-fluorophenyl)-5,6,7,8-tetrahydroimidazo[1,2-a]pyridin-2-yl)methanone], 82.2%; under `Cc1cc(C2CCc3nc(C(=O)N4CCN(c5ccc(C(F)(F)F)cc5)CC4)cn3C2)ccc1F` (stereo not drawn) [Compound 62, (6-(4-Fluoro-3-methylphenyl)-5,6,7,8-tetrahydroimidazo[1,2-a]pyridin-2-yl)(4-(4-(trifluoromethyl)phenyl)piperazin-1-yl)methanone], 40.8%.
Turning to `Cc1cc(C2CCc3nc(C(=O)N4CCN(c5ccc(F)cc5)CC4)cn3C2)ccc1F` (stereo not drawn) [Compound 63, (6-(4-Fluoro-3-methylphenyl)-5,6,7,8-tetrahydroimidazo[1,2-a]pyridin-2-yl)(4-(4-fluorophenyl)piperazin-1-yl)methanone], the activation at 10 µM came to 96.7%.
On the same count and under the same terms, under `Cc1ccc(N2CCN(C(=O)c3cn4c(n3)CCC(c3ccc(F)c(C)c3)C4)CC2)cc1` (stereo not drawn) [Compound 64, (6-(4-Fluoro-3-methylphenyl)-5,6,7,8-tetrahydroimidazo[1,2-a]pyridin-2-yl)(4-(4-methylphenyl)piperazin-1-yl)methanone] stands 46.7%; under `Cc1cccc(N2CCN(C(=O)c3cn4c(n3)CCC(c3ccc(F)c(C)c3)C4)CC2)c1` (stereo not drawn) [Compound 65, (6-(4-Fluoro-3-methylphenyl)-5,6,7,8-tetrahydroimidazo[1,2-a]pyridin-2-yl)(4-(3-methylphenyl)piperazin-1-yl)methanone], 132%; under `Cc1cc(C2CCc3nc(C(=O)N4CCC(C(c5ccccc5)c5ccccc5)CC4)cn3C2)ccc1F` (stereo not drawn) [Compound 67, (4-Benzhydrylpiperidin-1-yl)(6-(4-fluoro-3-methylphenyl)-5,6,7,8-tetrahydroimidazo[1,2-a]pyridin-2-yl)methanone], 33.3%.
As for `Cc1cc(C2CCc3nc(C(=O)NCC4CCCCC4)cn3C2)ccc1F` (stereo not drawn) [Compound 68, N-(Cyclohexylmethyl)-6-(4-fluoro-3-methylphenyl)-5,6,7,8-tetrahydroimidazo[1,2-a]pyridine-2-carboxamide], the activation at 10 µM was found to be 25.1%.
In the case of `COc1ccc(C2CCc3nc(C(=O)N4CCN(c5cccc(C(F)(F)F)c5)CC4)cn3C2)cc1` (stereo not drawn) [Compound 69, (6-(4-Methoxyphenyl)-5,6,7,8-tetrahydroimidazo[1,2-a]pyridin-2-yl)(4-(3-(trifluoromethyl)phenyl)piperazin-1-yl)methanone], the activation at 10 µM came to 30.1%.
The same measure, in the same setting: under `Cc1cccc(C2CCc3nc(C(=O)N4CCC(Cc5ccccc5)CC4)cn3C2)c1` (stereo not drawn) [Compound 70, (4-Benzylpiperidin-1-yl)(6-m-tolyl-5,6,7,8-tetrahydroimidazo[1,2-a]pyridin-2-yl)methanone] stands 123%; under `COc1cccc(C2CCc3nc(C(=O)N4CCN(c5cccc(C(F)(F)F)c5)CC4)cn3C2)c1` (stereo not drawn) [Compound 71, (6-(3-Methoxyphenyl)-5,6,7,8-tetrahydroimidazo[1,2-a]pyridin-2-yl)(4-(3-(trifluoromethyl)phenyl)piperazin-1-yl)methanone], 115%.
Still for that read-out and setting: under `Cc1cc(C2CCc3nc(C(=O)NC(C)CCc4ccccc4)cn3C2)ccc1F` (stereo not drawn) [Compound 72, 6-(4-Fluoro-3-methylphenyl)-N-(4-phenylbutan-2-yl)-5,6,7,8-tetrahydroimidazo[1,2-a]pyridine-2-carboxamide] stands 103%.
Same read-out and setting: under `Cc1ccc(C2CCc3nc(C(=O)N4CCC(Cc5ccccc5)CC4)cn3C2)cc1` (stereo not drawn) [Compound 73] stands 88.8%.
On to `Cc1ccc(C2CCc3nc(C(=O)N4CCN(c5cccc(C(F)(F)F)c5)CC4)cn3C2)cc1` (stereo not drawn) [Compound 74, (6-p-Tolyl-5,6,7,8-tetrahydroimidazo[1,2-a]pyridin-2-yl)(4-(3-(trifluoromethyl)phenyl)piperazin-1-yl)methanone], for which the activation at 10 µM was determined as 51.9%.
On the same count and under the same terms, the figure for `Cc1cccc(C2CCc3nc(C(=O)N4CCN(c5cccc(C(F)(F)F)c5)CC4)cn3C2)c1` (stereo not drawn) [Compound 75, (6-m-Tolyl-5,6,7,8-tetrahydroimidazo[1,2-a]pyridin-2-yl)(4-(3-(trifluoromethyl)phenyl)piperazin-1-yl)methanone] is 127%; for `COc1ccc(C2CCc3nc(C(=O)N4CCC(Cc5ccccc5)CC4)cn3C2)cc1` (stereo not drawn) [Compound 76, (4-Benzylpiperidin-1-yl)(6-(4-methoxyphenyl)-5,6,7,8-tetrahydroimidazo[1,2-a]pyridin-2-yl)methanone] it is 65.1%.

The test is the same for the next values; noted with them: CHO-K1 cells expressing KCNQ2/3 channels; agonistic activity.
For `O=C(c1cn2c(n1)CCC(c1ccccc1)C2)N1CCN(c2cccc(C(F)(F)F)c2)CC1` (stereo not drawn) [Compound 53, (6-Phenyl-5,6,7,8-tetrahydroimidazo[1,2-a]pyridin-2-yl)(4-(3-(trifluoromethyl)phenyl)piperazin-1-yl)methanone], the EC50 (commonly the concentration at which the effect is half-maximal) was determined as 8.34 µM. This counts as single-digit micromolar.
On the same count and under the same terms, the figure for `COc1c(C)cc(C2CCc3nc(C(=O)N4CCN(c5cccc(C(F)(F)F)c5)CC4)cn3C2)cc1C` (stereo not drawn) [Compound 54, (6-(4-Methoxy-3,5-dimethylphenyl)-5,6,7,8-tetrahydroimidazo[1,2-a]pyridin-2-yl)(4-(3-(trifluoromethyl)phenyl)piperazin-1-yl)methanone] is 2.45 µM; for `COc1c(C)cc(C2CCc3nc(C(=O)N4CCC(Cc5ccccc5)CC4)cn3C2)cc1C` (stereo not drawn) [Compound 55, (4-Benzylpiperidin-1-yl)(6-(4-methoxy-3,5-dimethylphenyl)-5,6,7,8-tetrahydroimidazo-[1,2-a]pyridin-2-yl)methanone] it is 5.42 µM.
Same read-out and setting: the figure for `COc1c(C)cc(C2CCc3nc(C(=O)N4CC5(C)CC4CC(C)(C)C5)cn3C2)cc1C` (stereo not drawn) [Compound 56, (6-(4-Methoxy-3,5-dimethylphenyl)-5,6,7,8-tetrahydroimidazo[1,2-a]pyridin-2-yl)(1,3,3-trimethyl-6-azabicyclo[3.2.1]octan-6-yl)methanone] is 11.3 µM; for `Cc1cc(C2CCc3nc(C(=O)N4CCC(Cc5ccccc5)CC4)cn3C2)ccc1F` (stereo not drawn) [Compound 57, (4-Benzylpiperidin-1-yl)(6-(4-fluoro-3-methylphenyl)-5,6,7,8-tetrahydroimidazo[1,2-a]pyridin-2-yl)methanone] it is 9.71 µM; for `Cc1cc(C2CCc3nc(C(=O)N4CCN(c5cccc(C(F)(F)F)c5)CC4)cn3C2)ccc1F` (stereo not drawn) [Compound 58, (6-(4-Fluoro-3-methylphenyl)-5,6,7,8-tetrahydroimidazo[1,2-a]pyridin-2-yl)(4-(3-(trifluoromethyl)phenyl)piperazin-1-yl)methanone] it is 4.46 µM.
Still for that read-out and setting: under `COc1cccc(C2CCc3nc(C(=O)NC(C)CCc4ccccc4)cn3C2)c1` (stereo not drawn) [Compound 60, 6-(3-Methoxyphenyl)-N-(4-phenylbutan-2-yl)-5,6,7,8-tetrahydroimidazo[1,2-a]pyridine-2-carboxamide] stands 6.4 µM.
